Several values for one entry are separate records, joined by “and”; a condition that tells them apart may be missing. Equal entries are not always repeated. Where two headings read alike, the source gives them in different places.
Assays:
[1] = Bioanalytical assessment of plasma and brain concentrations after mouse DC-MES assay; format: in vivo; details: WT mice; for concentration at 2 h: mouse, po
Protocol: Approximately 0.5 mL of blood was collected from each mouse at the end of the assay via cardiac puncture under deep anesthesia. The blood samples were collected in a syringe and transferred to tubes containing EDTA. Blood was stored at 4 °C until centrifuged within 30 min of collection. Plasma was harvested and placed on dry ice and stored in a freezer set to maintain a temperature of –70°C to –80°C until analysis. Brains were harvested immediately after blood collection and placed on dry ice prior to storage in a freezer set to maintain a temperature of –70°C to –80°C until analysis.
Extraction of plasma samples was carried out by protein precipitation using acetonitrile. Plasma samples (50 µL) were mixed with 50 µL of internal standard (IS) solution in water followed by addition of 10 µL of concentrated ortho-phosphoric acid and 200 µL of acetonitrile. Samples were vortexed for 30 seconds, centrifuged at 13,000 rpm for 20 min, decanted in to a 96-well plate, and further centrifuged at 4000 rpm for 20 min. The samples were analyzed by UHPLC-ESI-MS/MS as described below.
Prior to extraction, pre-weighed whole brains were homogenized in 1:1 acetonitrile/water (v/v) (4 mL per mouse brain) using an IKA T18 ULTRA-TURRAX Homogenizer at the setting of 4 for approximately 2 min. The homogenate was centrifuged at 13,000 rpm for 20 min and 50 µL of the supernatant were treated exactly as described above for plasma samples. […]
Samples were analyzed by UHPLC-ESI MS/MS using a TQ-5500 Sciex triple quadrupole mass spectrometer equipped with a Shimadzu Nexera UHPLC pump and auto-sampler system using an ACE C18 PFP, 2.50 × 50 mm, 1.7 µm particle size column and gradient elution consisting of solvent A (0.1% formic acid in water) and solvent B (0.1% formic acid in acetonitrile) starting at 20% B from 0 min to 0.4 min and then increased to 100% B from 0.4 min to 0.6 min. At 2.0 min, the mobile phase composition was switched back to […] for 1 min. The flow rate used throughout the experiment was […]. […] The UHPLC-ESI MS/MS system was controlled by Analyst 1.6.
Sample concentrations were determined using a linear calibration function, weighted 1 /X, generated by the regression of analyte to IS peak area ratios in the standard samples to their respective concentrations. Acceptance criteria for the analytical run required that the back calculated values of the standards and the QC samples fell within ±20% of their nominal values, except for the lowest standard or lower limit of quantitation (LLOQ), for which the acceptance criterion was ±25%. At least 6 out of 12 standard points had to show back-calculated values within ±20% of their nominal concentrations for the calibration to be accepted. At least three QC samples, one at each level, had to show back-calculated values within ±20% of their nominal concentrations for the whole sample batch to be valid.

[2] = system: wild-type Sprague Dawley rats; assay: DC-Maximal electroshock seizure assay (DC-MES); format: in vivo, rat; details: for WT rat DC-MES, fraction of animals seizing: sheet Figure 5G, 5H, 5I (rats)
Protocol: (§1) Phenytoin was formulated in physiologic saline and was administered intraperitoneally (i.p.) using a 25-gauge needle at a dose volume of 10 mL/kg. All compounds were administered 2 hr prior to electrical seizure induction for all seizure models employed in this study.
(§2) The maximal electroshock seizure (MES) assay has been extensively used in the search for anticonvulsant substances ([Löscher et al., 1991]; [Piredda et al., 1985]; [White et al., 1995]). The MES assay is sensitive to nonselective NaV inhibitors. It is considered a model for generalized tonic-clonic (GTC) seizures and provides an assessment of seizure spread. Briefly, an electroshock of direct current (DC) was delivered by corneal electrodes (Electro Convulsive Therapy Unit 57,800 from Ugo Basile). The parameters of stimulation were different between mice and rats. In CF1 mice aged 9–12 weeks, a direct current of 50 mA (60 Hz) was delivered for 0.2 s (pulse width of 0.5ms), whereas in Sprague Dawley (SD) rats aged 5–6 weeks, a direct current of 150 mA (60 Hz) was delivered for 0.3 s (pulse width of 0.5ms). Immediately prior to the electroshock, the animals’ eyes were anesthetized with a drop of Alcaine (0.5% proparacaine hydrochloride).
(§3) An animal was considered protected in the assay in the absence of a GTC with hindlimb extension and is then scored ‘0’. An animal displaying GTC with hindlimb extension was considered not protected and is then scored ‘1’. The experimenter scoring the seizure behavior was blinded to the treatment.

wild-type mice (CF-1) = assay: DC-Maximal electroshock seizure assay (DC-MES); format: in vivo, mouse; details: for WT mouse DCMES Chronic, Fraction of animals seizing: day 7, 2 h after 13th dose; for WT mouse DCMES acute, Fraction of animals seizing: 2 h
Protocol: as §1, §2, §3

[3] = Bioanalytical assessment of plasma and brain concentrations after rat DC-MES assay; format: in vivo; details: sheet Figure 5G, 5H, 5I (rats); for concentration at 2 h: rat, po
Sprague Dawley rats = assay: Observation of potential adverse behavior (behavioral signs) in the rat DC-MES studies; format: in vivo; details: rat
Protocol: Animals were observed by the scientist(s) responsible for dosing for the first 30 min after dosing for and again at the time of assay (2 hr post dose) for signs of abnormal behavior.

[4] = 3 mg/kg PO every 12 hr, day 7, 2 h after 13th dose, 3 mg/kg
[5] = 5 mg/kg PO every 12 hr, day 7, 2 h after 13th dose, 5 mg/kg
[6] = 10 mg/kg PO single dose, 2 h, 10 mg/kg
[7] = 1 mg/kg PO single dose, 2 hr, 1 mg/kg

In the case of `Cc1cc(S(=O)(=O)Nc2cscn2)c(F)cc1N(C)[C@H]1CCN(Cc2ccccc2)C1` [NBI-921352], the “Mean [Brain]” value [1, 4] is reported as 0.01911 µM, the “Mean [Plasma]” value [1, 4] is reported as 0.01423 µM and the “Mean [Plasma]” value ([1]; 3 mg/kg PO single dose, 2 h, 3 mg/kg) is reported as 0.01728 µM and 0.009122 µM. The “Mean [Brain]” value [1, 5] was 0.02064 µM, the “Mean [Plasma]” value [1, 5] was 0.03091 µM and the “Mean [Plasma]” value ([1]; 5 mg/kg PO single dose, 2 h, 5 mg/kg) was 0.0212 µM. For the same compound, the “Mean [Brain]” value [1, 6] was 0.05777 µM and 0.08031 µM, the “Mean [Plasma]” value [1, 6] was 0.1016 µM and 0.1012 µM and the concentration at 2 h ([1]; brain, 3 mg/kg, 3 mg/kg PO every 12 hr, day 7, 2 h after 13th dose, read-out: Mean [Brain]) was 12.8 nM. It also gave a concentration at 2 h ([1]; brain, 5 mg/kg, 5 mg/kg PO every 12 hr, day 7, 2 h after 13th dose, read-out: Mean [Brain]) of 37.7 nM, a concentration at 2 h ([1]; brain, 10 mg/kg, 10 mg/kg PO every 12 hr, day 7, 2 h after 13th dose, read-out: Mean [Brain]) of 37.7 nM and a concentration at 2 h ([1]; brain, 10 mg/kg, 10 mg/kg PO single dose, 2 h, read-out: Mean [Brain]) of 51.9 nM. For the same compound, the concentration at 2 h ([1]; brain, 100 mg/kg, 100 mg/kg PO single dose, 2 h, read-out: Mean [Brain]) was 646 nM, the concentration at 2 h ([1]; brain, 200 mg/kg, 200 mg/kg PO single dose, 2 h, read-out: Mean [Brain]) was 3880 nM and the concentration at 2 h ([1]; plasma, 3 mg/kg, 3 mg/kg PO every 12 hr, day 7, 2 h after 13th dose, read-out: Mean [Plasma]) was 17.7 nM. The concentration at 2 h ([1]; plasma, 3 mg/kg, 3 mg/kg PO single dose, 2 h, read-out: Mean [Plasma]) was 11.2 nM, the concentration at 2 h ([1]; plasma, 5 mg/kg, 5 mg/kg PO every 12 hr, day 7, 2 h after 13th dose, read-out: Mean [Plasma]) was 43 nM and the concentration at 2 h ([1]; plasma, 5 mg/kg, 5 mg/kg PO single dose, 2 h, read-out: Mean [Plasma]) was 36.8 nM. The concentration at 2 h ([1]; plasma, 10 mg/kg, 10 mg/kg PO every 12 hr, day 7, 2 h after 13th dose, read-out: Mean [Plasma]) was 151 nM, the concentration at 2 h ([1]; plasma, 10 mg/kg, 10 mg/kg PO single dose, 2 h, read-out: Mean [Plasma]) was 94.2 nM and the concentration at 2 h ([1]; plasma, 100 mg/kg, 100 mg/kg PO single dose, 2 h, read-out: Mean [Plasma]) was 3330 nM. It also gave a concentration at 2 h ([1]; plasma, 200 mg/kg, 200 mg/kg PO single dose, 2 h, read-out: Mean [Plasma]) of 34700 nM, an EC50 ([2]; WT rat DC-MES (oral; phenytoin i.p.), read-out: plasma EC50) of 150 nM and an EC50 ([2]; WT rat DC-MES, 2 hr post dose (oral; phenytoin i.p.), read-out: brain EC50) of 37 nM. The ED50 ([2]; WT rat DC-MES, oral, 2 hr, read-out: ED50, prevention of GTC with hindlimb extension) was 3.7 mg/kg, the “WT rat DC-MES, fraction of animals seizing” value (shortened to “WT rat DC-MES, fraction”) ([2]; 1 mg/kg PO every 12 hr, day 7, 2 hr after 13th dose) was 0.4286 and the “WT rat DC-MES, fraction” value [2, 7] was 0.75 and 1. The “WT rat DC-MES, fraction” value ([2]; 3 mg/kg PO every 12 hr, day 7, 2 hr after 13th dose) was 0.25, the “WT rat DC-MES, fraction” value ([2]; 3 mg/kg PO single dose, 2 hr, 3 mg/kg) was 0.6 and 0.5714 and 0.4 and the “WT rat DC-MES, fraction” value ([2]; 10 mg/kg PO single dose, 2 hr) was 0.1429. The “WT rat DC-MES, fraction” value ([2]; 30 mg/kg PO single dose, 2 hr) was 0, the “WT mouse DCMES Chronic, Fraction of animals seizing” value (shortened to “WT mouse DCMES Chronic, Fraction”) (wild-type mice (CF-1); 3 mg/kg PO every 12 hr) was 0.4 and 0.25 and the “WT mouse DCMES acute, Fraction of animals seizing” value (“WT mouse DCMES acute, Fraction” below) (wild-type mice (CF-1); 3 mg/kg PO single dose) was 0.8 and 0.75 and 0.7143. The “WT mouse DCMES Chronic, Fraction” value (wild-type mice (CF-1); 5 mg/kg PO every 12 hr) was 0.25 and 0.2857, the “WT mouse DCMES acute, Fraction” value (wild-type mice (CF-1); 5 mg/kg PO single dose) was 0.625 and 0.7143 and the “WT mouse DCMES Chronic, Fraction” value (wild-type mice (CF-1); 10 mg/kg PO every 12 hr) was 0.2. The “WT mouse DCMES acute, Fraction” value (wild-type mice (CF-1); 10 mg/kg PO single dose) was 0.6 and 0.4286 and 0.6667, the “WT mouse DCMES acute, Fraction” value (wild-type mice (CF-1); 30 mg/kg PO single dose) was 0.3333 and 0.4 and 0.4286 and the “WT mouse DCMES acute, Fraction” value (wild-type mice (CF-1); 100 mg/kg PO single dose) was 0.2857. The “WT mouse DCMES acute, Fraction” value (wild-type mice (CF-1); 200 mg/kg PO single dose) was 0.1667, the EC50 (wild-type mice (CF-1); WT mouse DC-MES, 2 hr post dose (oral; phenytoin i.p.), read-out: brain EC50) was 200 nM and the ED50 (wild-type mice (CF-1); WT mouse DC-MES, oral, 2 hr, read-out: ED50, prevention of GTC with hindlimb extension) was 23 mg/kg. For the same compound, the EC50 (wild-type mice (CF-1); WT mouse DC-MES, read-out: plasma EC50) was 520 nM, the concentration at 2 h ([3]; brain, 1 mg/kg, 1 mg/kg PO every 12 hr, day 7, 2 hr after 13th dose, read-out: Mean [Brain]) was 12.5 nM and the concentration at 2 h ([3]; brain, 1 mg/kg, 1 mg/kg PO single dose, 2 hr, read-out: Mean [Brain]) was 16.6 nM. The concentration at 2 h ([3]; brain, 3 mg/kg, 3 mg/kg PO every 12 hr, day 7, 2 hr after 13th dose, read-out: Mean [Brain]) was 39.6 nM, the concentration at 2 h ([3]; brain, 10 mg/kg, 10 mg/kg PO single dose, 2 hr, read-out: Mean [Brain]) was 161 nM and the concentration at 2 h ([3]; brain, 30 mg/kg, 30 mg/kg PO single dose, 2 hr, read-out: Mean [Brain]) was 213 nM. The concentration at 2 h ([3]; plasma, 1 mg/kg, 1 mg/kg PO every 12 hr, day 7, 2 hr after 13th dose, read-out: Mean [Plasma]) was 33.9 nM, the concentration at 2 h ([3]; plasma, 3 mg/kg, 3 mg/kg PO every 12 hr, day 7, 2 hr after 13th dose, read-out: Mean [Plasma]) was 123 nM and the concentration at 2 h ([3]; plasma, 10 mg/kg, 10 mg/kg PO single dose, 2 hr, read-out: Mean [Plasma]) was 1150 nM. The concentration at 2 h ([3]; plasma, 30 mg/kg, 30 mg/kg PO single dose, 2 hr, read-out: Mean [Plasma]) was 2330 nM, the “Mean [Brain]” value [3, 7] was 0.02047 µM and 0.01429 µM and 0.01541 µM and the “minimal plasma concentration provoking behavioral signs (BSC)” value (Sprague Dawley rats) was 71 µM.

Source: article PMC8903829 (eLife, 2022)
